Measurements taken from patent publication US20250296959A1, “B7-H3 TARGETING PEPTIDES AND CONSTRUCTS THEREOF” (Mariana Oncology Inc., priority 2024, published 2025).
Like-named read-outs stand apart in the source and are kept apart here. Starred links: 1 amine or outer side, 2 acyl side, 3 side chain; linkers in the order of their positions; H or OH if unused. Positions of bridges follow the written chain, without caps; N, C: chain ends. Non-standard residues stand in square brackets, D forms with d. Residues, ends and D or L forms follow the SMILES beside them. Groups on a side chain read outwards from the residue. *: point of attachment. Ala(piperidin-4-yl) = O=C([C@H](CC1CCN([*:3])CC1)N[*:1])[*:2]; DOTA = O=C(O)CN1CCN(CC(=O)O)CCN(CC(=O)*)CCN(CC(=O)O)CC1; Trp(5-F) = N[C@@H](Cc1c[nH]c2ccc(F)cc12)C(=O)O; X1 = C[C@@H](c1ccccc1)[C@H](N[*:1])C(=O)[*:2]; γGlu = O=C(O)[C@H](CCC(=O)[*:2])N[*:1]; 1Nal = N[C@@H](Cc1cccc2ccccc12)C(=O)O; Ala(4-THP) = N[C@@H](CC1CCOCC1)C(=O)O; Val(3-OH) = CC(C)(O)[C@H](N)C(=O)O; 4Pal = N[C@@H](Cc1ccncc1)C(=O)O; Chg = N[C@H](C(=O)O)C1CCCCC1; Tle = CC(C)(C)[C@H](N)C(=O)O; hLeu = CC(C)CC[C@H](N)C(=O)O

Assays:
Calu-6 cell line [1] = assay: Net internalization of [177Lu]Lu-labeled peptide in Calu-6 cells; assay type: cell-based, Human; settings: 1 hour, 37° C., glycine pH 2.5 acid wash
Method: (§1) [^177Lu]LuCl3 was received from venders in HCl solution. For every mCi of [^177Lu]LuCl3 added to the reaction vial (1.5 mL Eppendorf vial), ammonium acetate buffer (0.2 M, pH 4.9, 100 μL, containing 1% w/v ascorbic acid and 6% v/v ethanol) and peptide conjugate (1 nmol) was added. The pH of the solution was determined to be approximately 5 by using pH strips. The reaction vial was incubated at 80° C., 700 RPM for 17-20 minutes. A sample from the reaction was analyzed by RP-HPLC using an Agilent Infinity II 1260 HPLC to determine reaction completion and radiochemical purity. HPLC conditions: Waters XBridge BEH C18 Column, 130 Å, 3.5 μm, 4.6 mm×250 mm; mobile phase: Solvent A=water (with 0.1% formic acid), solvent B=acetonitrile (with 0.1% formic acid). Gradients: 25-45% B in 10 minutes, 45-65% B in 12 minutes, 65-90% in 6 minutes at a flow rate of 0.5 mL/minute. Required amounts of the product were formulated in 1% PBSA for cell studies.
(§2) The study was conducted using Calu-6 cell line (Table 8)
(§3) Adherent cell studies: The cells were cultured in appropriate culture media (20 mL) in tissue culture treated T150 flasks at 37° C. and 5% CO2. Adherent cells were detached (60-70% confluent) using 5 mL Versene at 37° C. for 3 minutes. After confirming the viability using countess and count of detached cells using Trypan blue, the cells were centrifuged at 4° C. for 5 minutes (1,000 revolutions per minute). The cell pellet obtained was washed once with PBS and resuspended in 1% PBSA to obtain the desired cell concentration (5 million cells/mL).
Net internalization: The resuspended cells in 300 μl of 1% PBSA and counted in the gamma counter as “bound fraction” were collected in 1.5 mL Eppendorf tube and pelleted. The pelleted cells were incubated with 300 μl of 50 mM Glycine pH=2.5 for 3 minutes and then pelleted discarding the supernatant. This process was repeated one more time. The pelleted cells were washed with 300 μl of cold 1% PBSA and then resuspended in 300 μl 0.3 M NaOH. This was counted in the gamma counter as “internalized fraction”.
(§4) Calu-6 Cells are Human-Derived, Non-Engineered Lung Cancer Cell that Express B7-H3.

human 4lg B7-H3 = target: T1, human 4lg B7-H3 (Homo sapiens, UniProt Q5ZPR3); assay: Affinity determination by surface plasmon resonance (SPR) to 4Ig B7-H3; settings: 4Ig B7-H3
T1 sequence (Q5ZPR3 29-534): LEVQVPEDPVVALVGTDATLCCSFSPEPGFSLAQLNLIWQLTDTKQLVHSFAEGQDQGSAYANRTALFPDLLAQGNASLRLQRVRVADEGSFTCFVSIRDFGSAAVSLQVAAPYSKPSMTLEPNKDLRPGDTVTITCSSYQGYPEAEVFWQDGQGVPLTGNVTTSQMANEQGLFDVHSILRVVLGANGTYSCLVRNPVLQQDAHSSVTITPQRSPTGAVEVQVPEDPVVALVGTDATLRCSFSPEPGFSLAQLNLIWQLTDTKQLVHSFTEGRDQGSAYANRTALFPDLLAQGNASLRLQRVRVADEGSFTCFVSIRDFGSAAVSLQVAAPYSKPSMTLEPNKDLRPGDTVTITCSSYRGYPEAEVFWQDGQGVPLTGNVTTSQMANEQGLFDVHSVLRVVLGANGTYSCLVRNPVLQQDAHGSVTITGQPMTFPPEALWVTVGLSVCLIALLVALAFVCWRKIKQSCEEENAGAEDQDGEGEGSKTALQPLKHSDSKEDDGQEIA

Calu-6 cell line [2] = assay: Cell associated (bound) fraction of [177Lu]Lu-labeled peptide in Calu-6 cells; assay type: cell-based, Human; settings: 1 hour, 37° C.
Method: as §1, §2, §3
Cell associated fraction: Cells were incubated with 300 μL (0.8 μCi) of the incubation buffer (containing radiolabeled peptide [^177Lu]Lu-test peptide) for 1 hour at 37 C (Table 9). Post incubation, the cells were pelleted and washed 2 times using cold PBS+1% BSA. The supernatant and washes were combined and counted together as “unbound fraction” in a gamma counter. The cells were then resuspended in 300 μL of 1% PBS+1% BSA and counted in the gamma counter as cell associated fraction (or bound fraction).
as §4

SMILES	% net internalization (Calu-6 cell line [1])	Kd (human 4lg B7-H3; SPR KD—37° C., 37° C. flow cell temperature) [nM]	% cell associated fraction (Calu-6 cell line [2])	Kd (human 4lg B7-H3; SPR KD—25° C., 25° C. flow cell temperature) [nM]	Kd (human 4lg B7-H3; read-out: SPR KD—37° C., 37° C. flow cell temperature) [nM]	Kd (human 4lg B7-H3; read-out: SPR KD—25° C., 25° C. flow cell temperature) [nM]
CC(=O)N[C@@H](CCC(C)C)C(=O)N[C@@H](Cc1ccc(O)cc1)C(=O)N[C@H]1CSSC[C@@H](C(=O)N[C@@H](Cc2c[nH]c3ccc(F)cc23)C(=O)N[C@H](C(=O)N[C@H](C(=O)N[C@H](CCCCNC(=O)CN2CCN(CC(=O)O)CCN(CC(=O)O)CCN(CC(=O)O)CC2)C(=O)O)C(C)(C)O)[C@@H](C)c2ccccc2)NC(=O)[C@H](Cc2ccc(O)cc2)NC(=O)[C@H](C(C)C)NC(=O)[C@H](CC(=O)O)NC(=O)[C@H](CC2CCOCC2)NC(=O)[C@H](CC2CCNCC2)NC(=O)CNC(=O)[C@H](C(C)(C)C)NC1=O [compound 433, Ac-hLeu-Y-C-Tbg-G-PipAla-ThpA-D-V-Y-C-5FW-[(2S, 3S)beta-Me-Phe]-hydroxyVal-dLys(DOTA)-COOH] (Ac-[hLeu]YC[Tle]G[Ala(piperidin-4-yl)][Ala(4-THP)]DVYC[Trp(5-F)][X1][Val(3-OH)][dK](DOTA)-OH; disulfide 3-11)	B (25<%≤50)	< 1	C (%>50)	–	–	–
CC(=O)N[C@@H](CCC(C)C)C(=O)N[C@@H](Cc1ccc(O)cc1)C(=O)N[C@H]1CSSC[C@@H](C(=O)N[C@@H](Cc2cccc3ccccc23)C(=O)N[C@@H](Cc2ccccc2)C(=O)N[C@H](C(=O)N[C@H](CCCCNC(=O)CN2CCN(CC(=O)O)CCN(CC(=O)O)CCN(CC(=O)O)CC2)C(N)=O)[C@@H](C)O)NC(=O)[C@H](Cc2ccc(O)cc2)NC(=O)[C@H](C(C)C)NC(=O)[C@H](CC(=O)O)NC(=O)[C@H](Cc2ccc(O)cc2)NC(=O)[C@H](CCCCN)NC(=O)CNC(=O)[C@H](C(C)C)NC1=O [compound 158, Ac-hLeu-Y-C-V-G-K-Y-D-V-Y-C-1Nal-F-Thr-dLys(DOTA)-CONH2] (Ac-[hLeu]YCVGKYDVYC[1Nal]FT[dK](DOTA)-NH2; disulfide 3-11)	B (25<%≤50)	–	C (%>50)	< 1	–	–
CC(=O)N[C@@H](CCC(C)C)C(=O)N[C@@H](Cc1ccc(O)cc1)C(=O)N[C@H]1CSSC[C@@H](C(=O)N[C@@H](Cc2c[nH]c3ccc(F)cc23)C(=O)N[C@@H](Cc2ccccc2)C(=O)N[C@H](C(=O)N[C@H](CCCCNC(=O)CC[C@H](NC(=O)CN2CCN(CC(=O)O)CCN(CC(=O)O)CCN(CC(=O)O)CC2)C(=O)O)C(=O)O)C(C)(C)O)NC(=O)[C@H](Cc2ccc(O)cc2)NC(=O)[C@H](C(C)C)NC(=O)[C@H](CC(=O)O)NC(=O)[C@H](CC2CCOCC2)NC(=O)[C@H](CC2CCNCC2)NC(=O)CNC(=O)[C@H](C(C)(C)C)NC1=O [compound 440, Ac-hLeu-Y-C-Tbg-G-PipAla-ThpA-D-V-Y-C-5FW-F-hydroxyVal-dLys(gGlu-DOTA)-COOH] (Ac-[hLeu]YC[Tle]G[Ala(piperidin-4-yl)][Ala(4-THP)]DVYC[Trp(5-F)]F[Val(3-OH)][dK]([γGlu-DOTA])-OH; disulfide 3-11)	A (%≤25)	–	B (25<%≤50)	–	< 1	–
CC(=O)N[C@@H](CCC(C)C)C(=O)N[C@@H](Cc1ccc(O)cc1)C(=O)N[C@H]1CSSC[C@@H](C(=O)N[C@@H](Cc2c[nH]c3ccc(F)cc23)C(=O)N[C@@H](Cc2ccccc2)C(=O)N[C@H](C(=O)N[C@H](CCCCNC(=O)CN2CCN(CC(=O)O)CCN(CC(=O)O)CCN(CC(=O)O)CC2)C(N)=O)[C@@H](C)O)NC(=O)[C@H](Cc2ccc(O)cc2)NC(=O)[C@H](C2CCCCC2)NC(=O)[C@H](CC(=O)O)NC(=O)[C@H](Cc2ccncc2)NC(=O)[C@H](CCCCN)NC(=O)CNC(=O)[C@H](C(C)C)NC1=O [compound 190, Ac-hLeu-Y-C-V-G-K-4PyA-D-ChG-Y-C-5FW-F-Thr-dLys(DOTA)-CONH2] (Ac-[hLeu]YCVGK[4Pal]D[Chg]YC[Trp(5-F)]FT[dK](DOTA)-NH2; disulfide 3-11)	B (25<%≤50)	–	C (%>50)	–	–	< 1
